Entries after “also recorded” stand apart in the source; their conditions may differ. Where two headings read alike, the source gives them in different places.
Experiments:
[1] = system: TLR2, TLR3, TLR4, TLR5, TLR7, TLR8, TLR9, NOD1, NOD2; experiment: Agonist assays on panel of TLR and NOD transfectants; assay type: cell-based; conditions: TLR2, 3, 4, 5, 7, 8, 9, NOD1, NOD2
Method: (§1) Samples and controls were tested in duplicate on recombinant HEK-293 cell lines expressing the various TLR and NOD receptors with an alkaline phosphatase reporter gene. Cells were incubated with or without 1 μM naltrexone in an antagonist assay using the Invivogen panel of TLR and NOD signalling transfectants. Results shown are for TLR4 and TLR9, TLR activation results are given as optical density (O.D.) values, which have been confirmed in three independent experiments.
(§2) Low dose naltrexone (LDN) was tested in agonist and antagonist assays on a panel of TLR and NOD transfectants (TLR2, TLR3, TLR4, TLR5, TLR7, TLR8, TLR9, NOD1, NOD2). Screening assays were performed by Cayla-Invivogen (Toulouse, France).

[2] = system: hormone-refractory prostate cancer; experiment: Patient with hormone-refractory prostate cancer treated with Mycobacterium vaccae plus LDN; assay type: in vivo, human; conditions: one patient, LDN added to Mycobacterium vaccae treatment
metastatic melanoma = experiment: Patient with chemotherapy-resistant metastatic melanoma treated with LDN
TLR4 [3] = target: T1, TLR4 (Homo sapiens, UniProt O00206+Q9Y6Y9); experiment: TLR4 antagonist assay, HEK-293 transfectants with alkaline phosphatase reporter gene (Invivogen panel); assay type: cell-based; conditions: 1 μM naltrexone, O.D. readout (FIG. 1)
T1 construct: host or cells: HEK-293
Method: as §1, §2

TLR9 = target: T2, TLR9 (Homo sapiens, UniProt Q9NR96); experiment: TLR9 antagonist assay, HEK-293 transfectants with alkaline phosphatase reporter gene (Invivogen panel); assay type: cell-based
T2 construct: host or cells: HEK-293
T2 sequence (Q9NR96 26-1032): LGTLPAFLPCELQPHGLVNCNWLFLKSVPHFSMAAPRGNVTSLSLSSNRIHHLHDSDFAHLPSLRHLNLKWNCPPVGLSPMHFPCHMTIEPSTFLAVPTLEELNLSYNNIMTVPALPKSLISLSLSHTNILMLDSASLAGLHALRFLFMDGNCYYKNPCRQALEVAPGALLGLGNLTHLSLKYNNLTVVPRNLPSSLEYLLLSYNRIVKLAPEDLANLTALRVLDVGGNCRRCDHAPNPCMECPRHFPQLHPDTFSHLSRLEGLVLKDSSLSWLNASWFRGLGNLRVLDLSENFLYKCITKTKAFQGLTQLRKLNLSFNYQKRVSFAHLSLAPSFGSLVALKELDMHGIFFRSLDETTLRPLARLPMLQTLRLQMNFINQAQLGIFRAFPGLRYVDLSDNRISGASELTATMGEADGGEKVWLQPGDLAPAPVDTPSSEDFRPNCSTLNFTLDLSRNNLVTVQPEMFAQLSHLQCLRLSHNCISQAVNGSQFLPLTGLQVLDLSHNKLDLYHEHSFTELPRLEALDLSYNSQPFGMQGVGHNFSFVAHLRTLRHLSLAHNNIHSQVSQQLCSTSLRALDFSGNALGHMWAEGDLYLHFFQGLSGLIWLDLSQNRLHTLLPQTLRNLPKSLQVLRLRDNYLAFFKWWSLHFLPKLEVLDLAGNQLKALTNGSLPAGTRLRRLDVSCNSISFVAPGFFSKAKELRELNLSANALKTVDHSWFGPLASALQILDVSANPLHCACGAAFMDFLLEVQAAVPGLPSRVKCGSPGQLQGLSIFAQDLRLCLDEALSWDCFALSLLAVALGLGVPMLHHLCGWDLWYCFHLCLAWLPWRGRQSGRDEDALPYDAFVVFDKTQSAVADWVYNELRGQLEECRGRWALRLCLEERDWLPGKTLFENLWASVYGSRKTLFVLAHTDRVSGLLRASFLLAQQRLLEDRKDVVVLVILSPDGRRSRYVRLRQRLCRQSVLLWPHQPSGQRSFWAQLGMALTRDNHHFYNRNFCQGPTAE
Method: as §1, §2

TLR4 [4] = target: T1, TLR4; conditions: Hutchinson et al. (2008); cited from earlier work

T1 sequence (O00206 24-839, species assumed): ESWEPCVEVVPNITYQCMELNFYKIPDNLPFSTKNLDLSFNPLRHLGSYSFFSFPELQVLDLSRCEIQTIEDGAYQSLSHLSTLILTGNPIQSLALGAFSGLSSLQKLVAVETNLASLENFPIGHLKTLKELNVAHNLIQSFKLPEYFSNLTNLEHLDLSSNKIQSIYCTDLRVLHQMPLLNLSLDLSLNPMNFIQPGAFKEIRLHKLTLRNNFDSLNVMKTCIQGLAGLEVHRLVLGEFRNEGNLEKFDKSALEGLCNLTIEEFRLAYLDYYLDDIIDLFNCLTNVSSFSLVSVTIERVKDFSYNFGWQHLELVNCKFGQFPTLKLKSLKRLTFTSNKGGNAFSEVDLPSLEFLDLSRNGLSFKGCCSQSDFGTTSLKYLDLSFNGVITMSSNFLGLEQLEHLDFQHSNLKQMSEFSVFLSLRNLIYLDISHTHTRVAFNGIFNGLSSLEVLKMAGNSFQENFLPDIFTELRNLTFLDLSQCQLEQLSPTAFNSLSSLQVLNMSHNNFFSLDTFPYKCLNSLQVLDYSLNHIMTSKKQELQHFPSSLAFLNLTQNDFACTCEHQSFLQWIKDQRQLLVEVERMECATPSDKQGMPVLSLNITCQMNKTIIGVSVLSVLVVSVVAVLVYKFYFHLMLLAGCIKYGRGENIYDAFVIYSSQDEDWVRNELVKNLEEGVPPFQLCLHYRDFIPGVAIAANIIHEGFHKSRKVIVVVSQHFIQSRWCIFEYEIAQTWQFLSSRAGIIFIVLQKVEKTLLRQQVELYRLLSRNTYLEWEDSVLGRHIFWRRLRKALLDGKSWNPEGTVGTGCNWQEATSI
T1 sequence (Q9Y6Y9 17-160 limits assumed, species assumed): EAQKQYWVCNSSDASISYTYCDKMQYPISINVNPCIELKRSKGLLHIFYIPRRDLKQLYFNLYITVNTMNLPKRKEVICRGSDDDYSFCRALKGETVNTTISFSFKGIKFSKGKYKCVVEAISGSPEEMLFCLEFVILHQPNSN

SMILES: O=C1CC[C@@]2(O)[C@H]3Cc4ccc(O)c5c4[C@@]2(CCN3CC2CC2)[C@H]1O5 [LDN, morphinan-6-one,17-(cyclopropylmethyl)-4,5-epoxy-3,14-dihydroxy-(5α)]
- stimulation of signalling (agonism) through TLR and NOD receptors [1]: did not stimulate signalling through any of the receptors tested
- prostate-specific antigen levels [2]: drop in prostate-specific antigen levels
- time to development of vitiligo (metastatic melanoma; after administration of low dose naltrexone): ≤ 48 h
- development of vitiligo (sign of activated cytotoxic T cells against melanoma antigens) (metastatic melanoma; one patient previously given vaccine and radiotherapy, LDN as supportive treatment prior to more radiotherapy): marked vitiligo
- antagonism of TLR4 (TLR4 [3]): mild antagonistic effect; also recorded: mild antagonist effect
- antagonism of TLR9 (recognition of CpG DNA) (TLR9; antagonist assay, 1 μM naltrexone, O.D. readout (FIG. 1)): striking antagonistic effect; also recorded: inhibited recognition of CpG DNA
- IC50 (TLR9; titration, TLR9-transfected cell line, naltrexone diluted in PBS or H2O (FIG. 2), read-out: IC50 for inhibition of TLR9): ~50 µM
- antagonism of TLR4 (TLR4 [4]): weakly antagonise TLR4
